How the values were obtained:
MDA-MB-435 = test: Antiproliferative activity against human MDA-MB-435 cells assessed as cell growth inhibition; format: functional
EA.hy 926 = test: Antiproliferative activity against human EA.hy 926 cells assessed as cell growth inhibition; format: functional, cell-based
DLD-1 = test: Antiproliferative activity against MTAs-resistant human DLD-1 cells overexpressing P-gp assessed as cell growth inhibition; format: functional, cell-based
[1] = molecular target: Vascular endothelial growth factor receptor 2 (Homo sapiens, UniProt P35968); test: Inhibition of VEGFR2 (unknown origin)
[2] = molecular target: Epidermal growth factor receptor (Homo sapiens, UniProt P00533); test: Inhibition of EGFR (unknown origin)
NCI-H460 [3] = test: Antitumor activity against human NCI-H460 cells xenografted in mouse assessed as inhibition of tumor growth at 30 mg/kg relative to control; format: functional; conditions: read-out: TGI
NCI-H460 [4] = test: Antiproliferative activity against human NCI-H460 cells expressing TaxR assessed as cell growth inhibition; format: functional, cell-based
NCI-H460 [5] = test: Antitumor activity against human NCI-H460 cells expressing TaxR xenografted in mouse assessed as inhibition of tumor growth at 30 mg/kg relative to control; format: functional; conditions: read-out: TGI
NCI-H460 [6] = test: Antiproliferative activity against human NCI-H460 cells assessed as cell growth inhibition; format: functional, cell-based
MCF7 [7] = test: Antiproliferative activity against human MCF7 cells assessed as cell growth inhibition; format: functional, cell-based
A549 [8] = test: Antiproliferative activity against human A549 cells assessed as cell growth inhibition; format: functional, cell-based
JeKo-1 = test: Antiproliferative activity against human JeKo-1 cells assessed as cell growth inhibition measured after 72 hrs by MTT assay; format: functional, cell-based; conditions: JeKo-1, 72 h
[9] = Antiproliferative activity against human LAMA84-s cells assessed as cell growth inhibition measured after 72 hrs by MTT assay; format: functional, cell-based
[10] = Antiproliferative activity against human ARD cells assessed as cell growth inhibition measured after 72 hrs by MTT assay; format: functional, cell-based
MV4-11 = test: Antiproliferative activity against human MV4-11 cells assessed as cell growth inhibition measured after 72 hrs by MTT assay; format: functional, cell-based; conditions: MV4-11, 72 h
A549 [11] = test: Antiproliferative activity against human A549 cells assessed as cell growth inhibition measured after 72 hrs by MTT assay; format: functional, cell-based; conditions: A549, 72 h
K562 [12] = test: Antiproliferative activity against human K562 cells assessed as cell growth inhibition measured after 72 hrs by MTT assay; format: functional, cell-based; conditions: K562, 72 h
[13] = Antiproliferative activity against human HBL1 cells assessed as cell growth inhibition measured after 72 hrs by MTT assay; format: functional, cell-based; conditions: HBL1, 72 h
NCI-H460 [14] = test: Antiproliferative activity against human NCI-H460 cells assessed as cell growth inhibition measured after 72 hrs by MTT assay; format: functional, cell-based; conditions: NCI-H460, 72 h
A2780S = test: Antiproliferative activity against human A2780S cells assessed as cell growth inhibition measured after 72 hrs by MTT assay; format: functional, cell-based
MM1.S = test: Antiproliferative activity against human MM1.S cells assessed as cell growth inhibition measured after 72 hrs by MTT assay; format: functional, cell-based
HT-29 = test: Antiproliferative activity against human HT-29 cells assessed as cell growth inhibition measured after 72 hrs by MTT assay; format: functional, cell-based; conditions: HT-29, 72 h
SK-OV-3 = test: Antiproliferative activity against human SK-OV-3 cells assessed as cell growth inhibition measured after 72 hrs by MTT assay; format: functional, cell-based; conditions: SK-OV-3, 72 h
RPMI-8226 = test: Antiproliferative activity against human RPMI-8226 cells assessed as cell growth inhibition measured after 72 hrs by MTT assay; format: functional, cell-based; conditions: RPMI-8226, 72 h
A-375 = test: Antiproliferative activity against human A-375 cells assessed as cell growth inhibition measured after 72 hrs by MTT assay; format: functional, cell-based; conditions: A-375, 72 h
HCT-116 [15] = test: Antiproliferative activity against human HCT-116 cells assessed as cell growth inhibition measured after 72 hrs by MTT assay; format: functional, cell-based; conditions: HCT-116, 72 h
U-266 = test: Antiproliferative activity against human U-266 cells assessed as cell growth inhibition measured after 72 hrs by MTT assay; format: functional, cell-based; conditions: U-266, 72 h
MCF7 [16] = test: Antiproliferative activity against human MCF7 cells assessed as cell growth inhibition measured after 72 hrs by MTT assay; format: functional, cell-based; conditions: MCF7, 72 h
HepG2 = test: Antiproliferative activity against human HepG2 cells assessed as cell growth inhibition measured after 72 hrs by MTT assay; format: functional, cell-based; conditions: HepG2, 72 h
MDA-MB-231 = test: Antiproliferative activity against human MDA-MB-231 cells assessed as cell growth inhibition measured after 72 hrs by MTT assay; format: functional, cell-based; conditions: MDA-MB-231, 72 h
Ramos = test: Antiproliferative activity against human Ramos cells assessed as cell growth inhibition measured after 72 hrs by MTT assay; format: functional, cell-based
KB [17] = test: Antiproliferative activity against human KB cells assessed as cell growth inhibition; format: functional, cell-based
KB [18] = test: Antiproliferative activity against etoposide-resistant human KB cells assessed as cell growth inhibition; format: functional, cell-based
KB [19] = test: Antiproliferative activity against vincristine-resistant human KB cells assessed as cell growth inhibition; format: functional, cell-based
HONE1 cell line = test: Antiproliferative activity against human HONE1 cell line assessed as cell growth inhibition; format: functional, cell-based
Tubulin [20] = test: Inhibition of tubulin depolymerization (unknown origin); format: protein-complex assay, Homo sapiens
HCT-116 [21] = test: Antiproliferative activity against human HCT-116 cells assessed as cell growth inhibition; format: functional, cell-based
Tubulin [22] = test: Inhibition of tubulin polymerization (unknown origin); format: protein-complex assay, Homo sapiens
HL-60(TB) = test: Antiproliferative activity against human HL-60(TB) cells assessed as cell growth inhibition; format: functional
SF-295 = test: Antiproliferative activity against human SF-295 cells assessed as cell growth inhibition; format: functional
NCI-H322M = test: Antiproliferative activity against human NCI-H322M cells assessed as cell growth inhibition; format: functional
KM12 = test: Antiproliferative activity against human KM12 cells assessed as cell growth inhibition; format: functional
LOX IMVI = test: Antiproliferative activity against human LOX IMVI cells assessed as cell growth inhibition; format: functional
SNB-75 = test: Antiproliferative activity against human SNB-75 cells assessed as cell growth inhibition; format: functional
HCT-15 = test: Antiproliferative activity against human HCT-15 cells assessed as cell growth inhibition; format: functional
BT-549 = test: Antiproliferative activity against human BT-549 cells assessed as cell growth inhibition; format: functional
NCI/ADR-RES = test: Antiproliferative activity against human NCI/ADR-RES cells assessed as cell growth inhibition; format: functional
M14 = test: Antiproliferative activity against human M14 cells assessed as cell growth inhibition; format: functional
CCRF-CEM = test: Antiproliferative activity against human CCRF-CEM cells assessed as cell growth inhibition; format: functional
NCI-H522 = test: Antiproliferative activity against human NCI-H522 cells assessed as cell growth inhibition; format: functional
K562 [23] = test: Antiproliferative activity against human K562 cells assessed as cell growth inhibition; format: functional
OVCAR-3 = test: Antiproliferative activity against human OVCAR-3 cells assessed as cell growth inhibition; format: functional
OVCAR-8 = test: Antiproliferative activity against human OVCAR-8 cells assessed as cell growth inhibition; format: functional
SW-620 = test: Antiproliferative activity against human SW-620 cells assessed as cell growth inhibition; format: functional
PC-3 = test: Antiproliferative activity against human PC-3 cells assessed as cell growth inhibition; format: functional
A498 = test: Antiproliferative activity against human A498 cells assessed as cell growth inhibition; format: functional
SF-539 = test: Antiproliferative activity against human SF-539 cells assessed as cell growth inhibition; format: functional
SN12C = test: Antiproliferative activity against human SN12C cells assessed as cell growth inhibition; format: functional
DU-145 = test: Antiproliferative activity against human DU-145 cells assessed as cell growth inhibition; format: functional
RXF 393 = test: Antiproliferative activity against human RXF 393 cells assessed as cell growth inhibition; format: functional
Hs-578T = test: Antiproliferative activity against human Hs-578T cells assessed as cell growth inhibition; format: functional
[24] = Antiproliferative activity against human U87 cells assessed as cell growth inhibition; format: functional, cell-based, U-87MG ATCC; conditions: U-87 MG
U-251 = test: Antiproliferative activity against human U-251 cells assessed as cell growth inhibition; format: functional, cell-based
[25] = Antiproliferative activity against human U87MG Human EGFR vIII cells assessed as cell growth inhibition; format: functional, cell-based
A 172 = test: Antiproliferative activity against human A-172 cells assessed as cell growth inhibition; format: functional, cell-based
HL60/MX2 = test: Antiproliferative activity against human HL60/MX2 cells assessed as cell growth inhibition; format: functional, cell-based
[26] = Antiproliferative activity against human KB/VCR cells assessed as cell growth inhibition; format: functional, cell-based
MES-SA/Dx5 = test: Antiproliferative activity against human MES-SA/Dx5 cells assessed as cell growth inhibition; format: functional, cell-based

Vascular endothelial growth factor receptor 2, sequence (P35968 whole entry): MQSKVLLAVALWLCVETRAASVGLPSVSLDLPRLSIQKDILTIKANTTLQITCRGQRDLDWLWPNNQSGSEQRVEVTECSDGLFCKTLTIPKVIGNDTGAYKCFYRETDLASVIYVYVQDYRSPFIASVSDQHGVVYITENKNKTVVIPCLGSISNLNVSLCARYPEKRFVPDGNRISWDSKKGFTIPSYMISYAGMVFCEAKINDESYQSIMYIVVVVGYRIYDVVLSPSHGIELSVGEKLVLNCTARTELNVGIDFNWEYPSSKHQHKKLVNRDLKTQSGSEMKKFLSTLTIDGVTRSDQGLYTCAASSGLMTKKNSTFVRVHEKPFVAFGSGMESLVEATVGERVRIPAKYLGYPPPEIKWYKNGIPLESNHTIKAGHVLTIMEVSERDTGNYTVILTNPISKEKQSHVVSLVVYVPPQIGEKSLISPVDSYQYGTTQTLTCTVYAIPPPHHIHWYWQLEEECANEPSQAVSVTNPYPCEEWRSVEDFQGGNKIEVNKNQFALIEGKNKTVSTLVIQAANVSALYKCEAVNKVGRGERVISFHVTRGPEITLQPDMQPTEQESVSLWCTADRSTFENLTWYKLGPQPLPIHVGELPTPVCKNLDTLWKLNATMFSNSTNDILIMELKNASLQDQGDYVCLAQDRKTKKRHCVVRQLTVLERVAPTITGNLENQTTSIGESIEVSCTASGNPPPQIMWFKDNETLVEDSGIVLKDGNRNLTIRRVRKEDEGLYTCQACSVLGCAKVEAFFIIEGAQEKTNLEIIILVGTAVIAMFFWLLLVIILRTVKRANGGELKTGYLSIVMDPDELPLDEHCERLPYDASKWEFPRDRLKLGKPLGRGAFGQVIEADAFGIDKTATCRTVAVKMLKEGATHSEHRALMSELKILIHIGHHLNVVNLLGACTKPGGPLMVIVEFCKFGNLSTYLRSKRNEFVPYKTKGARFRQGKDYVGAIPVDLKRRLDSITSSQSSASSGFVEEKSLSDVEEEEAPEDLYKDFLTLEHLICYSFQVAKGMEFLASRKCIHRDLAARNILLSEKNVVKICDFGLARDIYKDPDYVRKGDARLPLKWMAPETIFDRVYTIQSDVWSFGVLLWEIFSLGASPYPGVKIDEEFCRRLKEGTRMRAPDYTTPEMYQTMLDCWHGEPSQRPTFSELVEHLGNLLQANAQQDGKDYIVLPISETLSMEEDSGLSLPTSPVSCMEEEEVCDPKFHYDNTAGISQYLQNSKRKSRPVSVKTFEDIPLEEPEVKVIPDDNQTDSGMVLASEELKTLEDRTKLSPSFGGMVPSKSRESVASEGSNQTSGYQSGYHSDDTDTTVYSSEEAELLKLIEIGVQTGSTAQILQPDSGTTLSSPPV
Epidermal growth factor receptor, sequence (P00533 whole entry): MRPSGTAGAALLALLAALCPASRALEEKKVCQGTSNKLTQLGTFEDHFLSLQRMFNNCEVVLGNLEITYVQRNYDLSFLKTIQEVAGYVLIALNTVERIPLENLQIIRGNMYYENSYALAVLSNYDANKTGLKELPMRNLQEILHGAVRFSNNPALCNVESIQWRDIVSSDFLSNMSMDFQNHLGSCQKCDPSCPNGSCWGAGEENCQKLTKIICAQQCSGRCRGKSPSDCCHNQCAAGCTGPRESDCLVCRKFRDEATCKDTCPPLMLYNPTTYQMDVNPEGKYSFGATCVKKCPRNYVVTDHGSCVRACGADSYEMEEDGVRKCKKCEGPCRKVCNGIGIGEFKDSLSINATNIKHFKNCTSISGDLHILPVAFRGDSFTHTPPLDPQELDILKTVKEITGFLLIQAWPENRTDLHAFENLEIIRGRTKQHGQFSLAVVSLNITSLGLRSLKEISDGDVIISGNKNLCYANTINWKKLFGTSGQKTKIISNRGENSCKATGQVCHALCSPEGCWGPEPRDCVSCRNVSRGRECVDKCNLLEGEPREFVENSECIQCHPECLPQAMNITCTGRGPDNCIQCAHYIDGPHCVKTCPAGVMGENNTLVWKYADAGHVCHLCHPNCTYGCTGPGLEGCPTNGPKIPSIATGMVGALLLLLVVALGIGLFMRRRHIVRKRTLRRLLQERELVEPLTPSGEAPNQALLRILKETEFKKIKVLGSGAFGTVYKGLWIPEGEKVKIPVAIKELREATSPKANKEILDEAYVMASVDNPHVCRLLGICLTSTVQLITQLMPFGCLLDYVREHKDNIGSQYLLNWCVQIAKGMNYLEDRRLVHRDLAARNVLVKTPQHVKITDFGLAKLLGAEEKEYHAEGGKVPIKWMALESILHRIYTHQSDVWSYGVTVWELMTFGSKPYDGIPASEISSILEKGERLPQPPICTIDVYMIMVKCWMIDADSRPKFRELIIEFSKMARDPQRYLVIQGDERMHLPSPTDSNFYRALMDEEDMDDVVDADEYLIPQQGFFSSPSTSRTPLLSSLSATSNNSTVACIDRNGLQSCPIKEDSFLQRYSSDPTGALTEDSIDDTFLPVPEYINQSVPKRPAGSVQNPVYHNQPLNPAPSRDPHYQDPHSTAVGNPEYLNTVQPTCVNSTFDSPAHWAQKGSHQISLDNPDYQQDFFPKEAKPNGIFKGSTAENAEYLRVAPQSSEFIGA

COc1ccn2c(C(C)=O)cc(C(=O)c3ccc4c(c3)Sc3ccccc3N4)c2c1
GI50 (MDA-MB-435): 19 nM

COc1ccc(/C=C\c2cc(OC)c(OC)c(OC)c2)cc1O [COMBRETASTATIN A4]
IC50 (EA.hy 926): 11 nM

COc1ccc(-c2ocnc2-c2cc(Br)c(OC)c(OC)c2)cc1OCCCC(=O)NO
IC50 (EA.hy 926): 18 nM

CCCCC(C#CC(=O)OC)O/C=C/C(=O)OC (stereo unspecified)
IC50 (DLD-1): 450 nM

COc1ccc(-c2cc(=O)oc3c(O)c(O)ccc23)cc1O
IC50 [1]: 5500 nM
IC50 [2]: 4900 nM

CN(C)c1ccc(/C=C2/SC(=Nc3ccccc3Cl)NC2=O)cc1
inhibition in vivo at 30 mg/kg (NCI-H460 [3]): 62.4%
IC50 (NCI-H460 [4]): 800 nM
inhibition in vivo at 30 mg/kg (NCI-H460 [5]): 60.4%
IC50 (NCI-H460 [6]): 700 nM

COC(=O)NCCc1c(C(=O)c2ccccc2[N+](=O)[O-])[nH]c2ccccc12
IC50 (MCF7 [7]): 1590 nM
IC50 (A549 [8]): 740 nM

COc1ccc(N(C)c2nc(C)nc3ccccc23)cc1OCCCC(=O)NO
IC50 (JeKo-1): 31 nM
IC50 [9]: 31 nM
IC50 [10]: 31 nM
IC50 (MV4-11): 31 nM
IC50 (A549 [11]): 31 nM
IC50 (K562 [12]): 31 nM
IC50 [13]: 31 nM
IC50 (NCI-H460 [14]): 31 nM
IC50 (A2780S): 31 nM
IC50 (MM1.S): 31 nM
IC50 (HT-29): 31 nM
IC50 (SK-OV-3): 31 nM
IC50 (RPMI-8226): 31 nM
IC50 (A-375): 31 nM
IC50 (HCT-116 [15]): 31 nM
IC50 (U-266): 31 nM
IC50 (MCF7 [16]): 31 nM
IC50 (HepG2): 31 nM
IC50 (MDA-MB-231): 31 nM
IC50 (Ramos): 31 nM

COc1ccc(S(=O)(=O)Nc2ccccc2NCc2ccc(C(=O)Nc3ccccc3N)cc2)cc1
IC50 (KB [17]): 12 nM
IC50 (KB [18]): 22 nM
IC50 (KB [19]): 12 nM

CC(=O)O[C@H]1C(=O)[C@@]2(C)[C@H]([C@H](OC(=O)c3ccccc3)[C@]3(O)C[C@H](OC(=O)[C@H](O)[C@@H](NC(=O)c4ccccc4)c4ccccc4)C(C)=C1C3(C)C)[C@]1(OC(C)=O)CO[C@@H]1C[C@@H]2O [PACLITAXEL]
inhibition in vivo at 30 mg/kg (NCI-H460 [5]): 40%

COc1cc(C(=O)c2ccc3c(n2)C(=O)C(N2CCCC2)=CC3=O)cc(OC)c1OC
IC50 (KB [17]): 70 nM
IC50 (HONE1 cell line): 70 nM
IC50 (Tubulin [20]): 5900 nM
IC50 (HCT-116 [21]): 70 nM

COC(=O)NCCc1c(C(=O)c2cc(C(F)(F)F)cc(C(F)(F)F)c2)[nH]c2ccccc12
IC50 (MCF7 [7]): 1300 nM
IC50 (A549 [8]): 2010 nM

COc1ccc(C(=O)c2cc(C)c(OC)c(C)c2)cc1OC(=O)CCl
IC50 (Tubulin [22]): 1300 nM
GI50 (HL-60(TB)): < 10 nM
GI50 (SF-295): < 10 nM
GI50 (NCI-H322M): < 10 nM
GI50 (KM12): < 10 nM
GI50 (LOX IMVI): < 10 nM
GI50 (SNB-75): < 10 nM
GI50 (HCT-15): < 10 nM
GI50 (BT-549): < 10 nM
GI50 (NCI/ADR-RES): < 10 nM
GI50 (M14): < 10 nM
GI50 (CCRF-CEM): < 10 nM
GI50 (MCF7 [7]): < 10 nM
GI50 (A549 [8]): < 10 nM
GI50 (NCI-H522): < 10 nM
GI50 (K562 [23]): < 10 nM
GI50 (OVCAR-3): < 10 nM
GI50 (OVCAR-8): < 10 nM
GI50 (SW-620): < 10 nM
GI50 (PC-3): < 10 nM
GI50 (MDA-MB-435): < 10 nM
GI50 (A498): < 10 nM
GI50 (SF-539): < 10 nM
GI50 (SN12C): < 10 nM
GI50 (DU-145): < 10 nM
GI50 (RXF 393): < 10 nM
GI50 (Hs-578T): < 10 nM

O=C(CCCc1ccc(-c2ccccc2F)cc1)Nc1ccc(O)cc1
EC50 [24]: 600 nM
EC50 (U-251): 600 nM
EC50 [25]: 600 nM
EC50 (A 172): 600 nM

COc1ccc(O)c(C(=O)c2cnc3[nH]c4ccccc4c3c2)c1
IC50 (HL60/MX2): 320 nM
IC50 [26]: 400 nM
IC50 (MES-SA/Dx5): 160 nM
